Data as given in patent US11040981B2, “Pyrrolotriazine compounds and methods of inhibiting TAM kinases” (Syros Pharmaceuticals, Inc., priority 2017, dated 2021).

How the values were obtained:
[1] = target: T1, FLT3 (Homo sapiens, UniProt P36888); assay: TR-FRET kinase activity assay, FLT3; type: biochemical; settings: ATP at Km, 60 minutes
T1 sequence (P36888 27-993): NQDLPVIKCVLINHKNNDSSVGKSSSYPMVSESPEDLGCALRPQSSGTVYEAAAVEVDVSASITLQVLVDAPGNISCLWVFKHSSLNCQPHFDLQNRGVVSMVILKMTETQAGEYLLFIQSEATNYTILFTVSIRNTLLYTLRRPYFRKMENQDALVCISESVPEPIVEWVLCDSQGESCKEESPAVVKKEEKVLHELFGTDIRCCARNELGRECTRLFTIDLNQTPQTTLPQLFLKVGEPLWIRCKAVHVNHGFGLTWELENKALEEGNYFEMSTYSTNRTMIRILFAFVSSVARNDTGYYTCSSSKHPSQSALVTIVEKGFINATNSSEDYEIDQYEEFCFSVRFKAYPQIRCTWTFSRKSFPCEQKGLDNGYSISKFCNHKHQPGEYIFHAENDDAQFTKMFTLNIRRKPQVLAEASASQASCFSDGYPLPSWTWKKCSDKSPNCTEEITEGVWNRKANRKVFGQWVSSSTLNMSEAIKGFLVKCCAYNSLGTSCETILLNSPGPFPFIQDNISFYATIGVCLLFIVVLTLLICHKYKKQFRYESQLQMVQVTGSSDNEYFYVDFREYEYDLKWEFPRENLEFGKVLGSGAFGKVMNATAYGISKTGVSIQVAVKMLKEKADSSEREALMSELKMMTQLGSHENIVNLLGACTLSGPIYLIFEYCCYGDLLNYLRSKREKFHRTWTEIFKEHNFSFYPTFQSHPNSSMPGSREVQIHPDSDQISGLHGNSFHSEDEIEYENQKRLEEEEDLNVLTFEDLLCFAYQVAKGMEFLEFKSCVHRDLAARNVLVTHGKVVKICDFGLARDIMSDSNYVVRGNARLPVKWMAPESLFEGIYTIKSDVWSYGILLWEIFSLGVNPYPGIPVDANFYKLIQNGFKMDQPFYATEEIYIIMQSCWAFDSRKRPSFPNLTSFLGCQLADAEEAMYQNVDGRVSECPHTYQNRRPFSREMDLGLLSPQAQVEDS
In short: (§1)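 Inhibition is measured as loss of phospho-peptide formation: kinase, fluorescent tyrosine peptide and compound are combined, ATP is added at Km, and the reaction proceeds 60 min at RT in pH 7.5 HEPES buffer. An EDTA stop and Eu-labelled phospho-specific antibody allow TR-FRET detection for IC50 fitting.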

[2] = target: T2, MERTK (Homo sapiens, UniProt Q12866); assay: TR-FRET kinase activity assay, MERTK; type: biochemical; settings: for IC50: TR-FRET activity assay, ATP at Km, 60 minutes, read-out: Mer IC50
T2 sequence (Q12866 21-999): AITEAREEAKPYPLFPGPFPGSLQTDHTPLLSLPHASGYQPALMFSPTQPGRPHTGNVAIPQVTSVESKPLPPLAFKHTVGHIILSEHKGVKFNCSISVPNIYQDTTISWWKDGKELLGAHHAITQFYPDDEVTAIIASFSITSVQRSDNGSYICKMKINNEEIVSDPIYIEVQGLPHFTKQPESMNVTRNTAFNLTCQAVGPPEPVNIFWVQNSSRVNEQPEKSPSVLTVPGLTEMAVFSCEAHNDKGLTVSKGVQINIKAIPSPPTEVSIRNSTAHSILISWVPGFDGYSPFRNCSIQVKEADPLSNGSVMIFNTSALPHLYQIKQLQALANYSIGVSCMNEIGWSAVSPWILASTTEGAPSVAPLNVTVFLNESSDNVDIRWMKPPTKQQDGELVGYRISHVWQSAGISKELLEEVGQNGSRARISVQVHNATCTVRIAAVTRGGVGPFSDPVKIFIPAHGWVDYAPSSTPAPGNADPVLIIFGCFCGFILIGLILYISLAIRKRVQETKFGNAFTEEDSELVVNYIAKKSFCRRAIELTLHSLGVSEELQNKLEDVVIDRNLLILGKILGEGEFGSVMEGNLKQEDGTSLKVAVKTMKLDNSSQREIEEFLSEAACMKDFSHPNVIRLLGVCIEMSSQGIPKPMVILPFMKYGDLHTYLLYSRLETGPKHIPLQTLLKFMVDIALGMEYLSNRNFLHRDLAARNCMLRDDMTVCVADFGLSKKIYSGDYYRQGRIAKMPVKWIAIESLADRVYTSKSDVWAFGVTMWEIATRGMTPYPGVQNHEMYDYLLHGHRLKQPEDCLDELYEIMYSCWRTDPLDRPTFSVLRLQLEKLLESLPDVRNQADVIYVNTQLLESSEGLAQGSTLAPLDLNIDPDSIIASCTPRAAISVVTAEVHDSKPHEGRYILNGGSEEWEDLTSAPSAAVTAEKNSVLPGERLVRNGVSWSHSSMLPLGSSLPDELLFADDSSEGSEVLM
In short: as §1

[3] = ratio of Mer to FLT3: FLT3 IC50/Mer IC50
[4] = ratio calculated as FLT3 IC50/Mer IC50

| SMILES | IC50 [1] | IC50 [2] | FLT3/Mer ratio (FLT3 IC50/Mer IC50) [2, 3] | FLT3/Mer ratio (FLT3 IC50/Mer IC50) [2, 4] |
| --- | --- | --- | --- | --- |
| COC[C@H](C)Nc1ncc2c(-c3ccc(C(=O)O)cc3)cc([C@H]3CC[C@H](O)CC3)n2n1 [Compound 139] | 1000 to 10000 nM | ≤ 100 nM | +++ (“+++” represents a ratio of >100) | – |
| CCCCC[C@H](C)Nc1ncc2c([C@H]3CC[C@@H](C(=O)N4CCS(=O)(=O)CC4)CC3)cc([C@H]3CC[C@H](O)CC3)n2n1 [Compound 137] | 100 to 1000 nM | ≤ 100 nM | +++ (“+++” represents a ratio of >100) | – |
| CC(COc1ccccc1)Nc1ncc2c(-c3cnn(C4COC4)c3)cc([C@H]3CC[C@H](O)CC3)n2n1 (mixture of isomers) [Compound 528] | 100 to 1000 nM | ≤ 100 nM | – | +++ (“+++” represents a ratio of >100) |
| COCC(C)Nc1ncc2c(-c3ccnc(N4CCOC(C(C)(C)O)C4)c3)cc(C3CCC(O)CC3)n2n1 (stereo not drawn) [Compound 559] | 100 to 1000 nM | ≤ 100 nM | – | +++ (“+++” represents a ratio of >100) |
| COC[C@H](C)Nc1ncc2c(-c3ccnc(C(F)(F)F)c3)cc([C@H]3CC[C@H](O)CC3)n2n1 [Compound 584] | 1000 to 10000 nM | ≤ 100 nM | – | +++ (“+++” represents a ratio of >100) |
| COC[C@H](C)Nc1ncc2c([C@H]3CC[C@@H](C(=O)N4CC5(COC5)C4)CC3)cc([C@H]3CC[C@H](O)CC3)n2n1 [Compound 579] | 1000 to 10000 nM | ≤ 100 nM | – | +++ (“+++” represents a ratio of >100) |
| COC[C@H](C)Nc1ncc2c(-c3ccnc([S@@](C)(=N)=O)c3)cc([C@H]3CC[C@H](O)CC3)n2n1 [Compound 574] | 1000 to 10000 nM | ≤ 100 nM | – | +++ (“+++” represents a ratio of >100) |
| COC[C@H](C)Nc1ncc2c(-c3ccc(CN4CCOCC4)cc3)cc([C@H]3CC[C@H](O)CC3)n2n1 [Compound 140] | 100 to 1000 nM | ≤ 100 nM | +++ (“+++” represents a ratio of >100) | – |
| C[C@@H](CC(F)(F)F)Nc1ncc2c(-c3cncc([S@@](C)(=N)=O)c3)cc([C@H]3CC[C@H](O)CC3)n2n1 [Compound 583] | 100 to 1000 nM | ≤ 100 nM | – | +++ (“+++” represents a ratio of >100) |
| CC[C@H](C)Nc1ncc2c(C3CCN(c4nccc(C)n4)CC3)cc([C@H]3CC[C@H](O)CC3)n2n1 [Compound 136, (trans)-4-(2-((S)-sec-butylamino)-5-(1-(4-methylpyrimidin-2-yl)piperidin-4-yl)pyrrolo[2,1-f][1,2,4]triazin-7-yl)cyclohexanol] | 1000 to 10000 nM | ≤ 100 nM | +++ (“+++” represents a ratio of >100) | – |
| CCS(=O)(=O)N1CC(CC#N)(n2cc(-c3cc([C@H]4CC[C@H](O)CC4)n4nc(N[C@@H](C)COC)ncc34)cn2)C1 [Compound 567] | 1000 to 10000 nM | ≤ 100 nM | – | +++ (“+++” represents a ratio of >100) |
| COC[C@H](C)Nc1ncc2c(-c3cnn(C4COC4)c3)cc([C@@H]3CC[C@@H](O)[C@H](C)C3)n2n1 [Compound 589] | 100 to 1000 nM | ≤ 100 nM | – | +++ (“+++” represents a ratio of >100) |
| COCC(C)Nc1ncc2c(-c3ccc4ncoc4c3)cc(C3CCC(O)CC3)n2n1 (stereo not drawn) [Compound 552] | 100 to 1000 nM | ≤ 100 nM | – | +++ (“+++” represents a ratio of >100) |
